Patent US10508113B2, “Inhibitors of tyrosine kinase 2 mediated signaling” (AbbVie Inc., priority 2018, dated 2019)

target: T1, Jak1 (Homo sapiens, UniProt P23458); assay: Jak1 (PSTAT3 TF1) alpha screen assay: inhibition of IL-6 induced phosphorylation of STAT3 in TF1 cells; type: cell-based; settings: calculated from tabulated EC50 data (Jak1 / Tyk2)
T1 construct: endogenous in cells; host or cells: TF1 cells
Experimental: 2. JAK1 (PSTAT3 TF1) ALPHA SCREEN ASSAY
IL-6 is known to transduce its signal through IL-6 receptor via Jak1. Activity against Jak1 was therefore measured by determining inhibition of IL-6 induced phosphorylation of STAT3 in TF1 cells.
Cell Type: TF1 Cells; Culture Medium: RPMI 1640 Medium, 2mM L-glutamine, 10% heat- inactivated fetal bovine serum (FBS), 10 mM hydroxyethyl piperazineethanesulfonic acid (HEPES), and 2 ng/mL recombinant human interleukin-6(IL-6); Assay Medium: Dulbecco's Modified Eagle Medium (DMEM) medium with 2 mM L-glutamine, 10 mM HEPES, 100 U/mL penicillin/streptomycin, 1.5 g/L sodium bicarbonate, 4.5 g/L glucose, 1 mM sodium pyruvate, 10% heat-inactivated FBS; Compound Preparation: Compounds are dissolved in 100% dimethyl sulfoxide (DMSO).
Day One—Starve Cells: 4 Flasks for one 384 plate (spin down @1000 rpm for 10 minutes and add RPMI 1640 Medium, 2 mM L-glutamine, 10% FBS, 10 mM HEPES with no IL-6 -incubate overnight).
Day Two—Compound Dilutions:
i. Manual 8-point 1:5 dilution curve: 5 mM top concentration dispensed in row A of a
Corning 96-well polypropylene plate, columns 2-12. DMSO dispensed in position A01 for low and high controls. Compounds were serially diluted 1:5 by adding 10 μL stock to […] DMSO down the plate.
ii. Media dilution of compounds: Serially diluted compounds were further diluted 1:12.5 in assay medium by adding 4 μL compound to 46 μL assay medium in a Corning 96-well polypropylene plate.
384 Alpha Screen Plate Set up: Transfer 2.5 μL/well of compound solution from assay media dilution plate. Replicates were vertical, one column of the 96-well dilution plate goes into one column on the 384-well plate twice. Plated 1×10^5 starved cells/well in 5 μL. Washed cells in 10 mL DMEM medium after spinning down. Brought cell pellet up in assay media. Counted live cells. Multiplied by dilution factor and 10,000 (constant) to get the concentration of viable cells. Multiplied by volume of assay media used to bring up cells to get the total number of live cells. Divided by 20,000,000 cells/mL to get the volume needed. Cells were plated at 5 μL/well in gray Alpha Screen 384-well plate. Spinned the plate to bring the contents to the bottom of the wells at 300 rpm for 60 seconds. Top final compound concentration: 25 μM. Sealed with adhesive and tapped gently. Incubated plate at 37° C. for 30 minutes. c. IL-6 Stimulation (pSTAT3)
Once cells were in incubator, immediately prepared working stock of IL-6 (100 ng/mL final concentration). IL-6 stock=10 μg/mL of IL-6 in phosphate buffered saline with 0.1% bovine serum albumin. Diluted 1:25 by adding 60 μL stock IL-6 to 1440 μL assay media. Added 2.5 μL IL-6 to each well. Spinned plate at 300 rpm briefly; tapped the plate gently before covering with an adhesive seal. Incubated plate at 37° C. for 30 minutes.
Added 2.5 μL of 5X Lysis buffer to each well. Incubated at room temperature on orbital shaker for 10 minutes.
e. Protein (A) Acceptor Beads Preparation:
Phosphorylated Signal Transducer and Activator of Transcription 3 (pSTAT3) was quantified using the PerkinElmer SureFire pSTAT3 (Tyrosine 705) Assay. Calculated total volume needed (wells×[…]×25%). Divided total volume by 5 to get volume of activation buffer. Subtracted volume of activation buffer from total volume and divide by 40 to get volume of acceptor beads (add last). Total volume−acceptor bead volume−activation buffer=volume of reaction buffer. Added 15 μL to each well and covered with foil. Shaked on orbital shaker for 2 hours at 500 rpm.
f. Streptavidin Donor Beads Preparation:
Calculated total volume needed (wells×[…]×25%). Divided total volume by 20 to get volume of donor beads (add last). Subtracted volume of donor beads from total volume to get volume of dilution buffer. Added 6 μL to each well and covered with foil. Shaked on orbital shaker overnight at 500 rpm.
Read plate on a Perkin Elmer Envision. […]

T1 sequence (P23458 whole entry): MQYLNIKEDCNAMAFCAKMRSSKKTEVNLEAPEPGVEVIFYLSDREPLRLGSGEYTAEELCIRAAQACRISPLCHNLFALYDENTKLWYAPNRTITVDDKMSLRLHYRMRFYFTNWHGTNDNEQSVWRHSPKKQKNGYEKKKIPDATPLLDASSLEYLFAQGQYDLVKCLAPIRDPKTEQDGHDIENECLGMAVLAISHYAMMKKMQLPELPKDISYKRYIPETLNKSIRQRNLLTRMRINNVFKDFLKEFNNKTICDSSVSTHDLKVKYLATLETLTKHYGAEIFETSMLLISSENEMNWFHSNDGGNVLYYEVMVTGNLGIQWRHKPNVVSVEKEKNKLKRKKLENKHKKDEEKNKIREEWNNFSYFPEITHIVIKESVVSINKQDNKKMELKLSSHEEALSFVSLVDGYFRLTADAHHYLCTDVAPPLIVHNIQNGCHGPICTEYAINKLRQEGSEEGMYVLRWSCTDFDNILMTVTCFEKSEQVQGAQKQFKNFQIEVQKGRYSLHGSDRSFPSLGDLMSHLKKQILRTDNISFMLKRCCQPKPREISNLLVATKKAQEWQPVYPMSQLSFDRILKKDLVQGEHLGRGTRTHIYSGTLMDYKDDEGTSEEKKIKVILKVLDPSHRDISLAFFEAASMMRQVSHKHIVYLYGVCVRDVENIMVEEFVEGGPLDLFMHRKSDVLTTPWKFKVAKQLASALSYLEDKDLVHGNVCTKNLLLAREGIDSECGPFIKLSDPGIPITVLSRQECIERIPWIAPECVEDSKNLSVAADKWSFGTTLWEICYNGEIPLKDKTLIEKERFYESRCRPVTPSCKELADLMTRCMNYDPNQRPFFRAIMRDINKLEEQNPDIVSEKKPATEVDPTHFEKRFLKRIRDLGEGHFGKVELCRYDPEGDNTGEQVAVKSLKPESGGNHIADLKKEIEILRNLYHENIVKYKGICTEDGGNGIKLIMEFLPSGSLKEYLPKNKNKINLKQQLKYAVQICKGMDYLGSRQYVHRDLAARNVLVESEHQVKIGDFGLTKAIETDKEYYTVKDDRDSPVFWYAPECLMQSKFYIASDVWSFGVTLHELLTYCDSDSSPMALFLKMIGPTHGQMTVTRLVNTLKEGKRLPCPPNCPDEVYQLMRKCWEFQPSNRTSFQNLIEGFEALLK

Compound	Tyk2 selectivity over Jak1
CO[C@]1(c2cc(C)cc(-c3cn(C)c4cnc(NC(N)=O)cc34)n2)CCOC1 [Example 1b.3, (S)-1-(3-(6-(3-methoxytetrahydrofuran-3-yl)-4-methylpyridin-2-yl)-1-methyl-1H-pyrrolo[2,3-c]pyridin-5-yl)urea]	10-fold
CC[C@@]1(c2cccc(-c3cn(C)c4cnc(NC(C)=O)cc34)n2)CCOC1 [Example 2.3, (S)-N-(3-(6-(3-ethyltetrahydrofuran-3-yl)pyridin-2-yl)-1-methyl-1H-pyrrolo[2,3-c]pyridin-5-yl)acetamide]	188-fold
COc1cc(-c2cn(C3COC3)c3cnc(NC(C)=O)cc23)nc([C@]2(OC)CCOC2)c1 [Example 5, (R)-N-(3-(4-methoxy-6-(3-methoxytetrahydrofuran-3-yl)pyridin-2-yl)-1-(oxetan-3-yl)-1H-pyrrolo[2,3-c]pyridin-5-yl)acetamide]	>901-fold
COc1cc(-c2cn([C@@H]3CCOC3)c3cnc(NC(C)=O)cc23)nc([C@]2(OC)CCOC2)c1 [Example 5.2, N-(3-(4-methoxy-6-((R)-3-methoxytetrahydrofuran-3-yl)pyridin-2-yl)-1-((R)-tetrahydrofuran-3-yl)-1H-pyrrolo[2,3-c]pyridin-5-yl)acetamide]	>641-fold
CO[C@]1(c2cc(OCC3COC3)cc(-c3cn(C)c4cnc(NC(C)=O)cc34)n2)CCOC1 [Example 6.2, (S)-N-(3-(6-(3-methoxytetrahydrofuran-3-yl)-4-(oxetan-3-ylmethoxy)pyridin-2-yl)-1-methyl-1H-pyrrolo[2,3-c]pyridin-5-yl)acetamide]	50-fold
CO[C@@]1(c2cc(OC3COC3)cc(-c3cn(C)c4cnc(NC(C)=O)cc34)n2)CCOC1 [Example 8, (R)-N-(3-(6-(3-Methoxytetrahydrofuran-3-yl)-4-(oxetan-3-yloxy)pyridin-2-yl)-1-methyl-1H-pyrrolo[2,3-c]pyridin-5-yl)acetamide]	244-fold
CO[C@@]1(c2cc(C(F)F)cc(-c3cn(C)c4cnc(NC(N)=O)cc34)n2)CCOC1 [Example 12.5, (R)-1-(3-(4-(difluoromethyl)-6-(3-methoxytetrahydrofuran-3-yl)pyridin-2-yl)-1-methyl-1H-pyrrolo[2,3-c]pyridin-5-yl)urea]	909-fold
COc1cc(-c2cn(C)c3cnc(NC(N)=O)cc23)nc([C@@]2(OC)CCOC2)c1 [Example 12.7, (S)-1-(3-(4-methoxy-6-(3-methoxytetrahydrofuran-3-yl)pyridin-2-yl)-1-methyl-1H-pyrrolo[2,3-c]pyridin-5-yl)urea]	81-fold
CO[C@@]1(c2cc(C#N)cc(-c3cn([C@@H]4CC4(F)F)c4cnc(NC(N)=O)cc34)n2)CCOC1 [Example 12a.3, 1-(3-(4-cyano-6-((R)-3-methoxytetrahydrofuran-3-yl)pyridin-2-yl)-1-((R)-2,2-difluorocyclopropyl)-1H-pyrrolo[2,3-c]pyridin-5-yl)urea]	>1515-fold
CO[C@@]1(c2cc(C(F)F)cc(-c3cn([C@@H]4CCOC4)c4cnc(NC(N)=O)cc34)n2)CCOC1 [Example 12b.2, 1-(3-(4-(difluoromethyl)-6-((R)-3-methoxytetrahydrofuran-3-yl)pyridin-2-yl)-1-((R)-tetrahydrofuran-3-yl)-1H-pyrrolo[2,3-c]pyridin-5-yl)urea]	2667-fold
CO[C@@]1(c2cc(C(F)F)cc(-c3cn([C@H]4CCOC4)c4cnc(NC(N)=O)cc34)n2)CCOC1 [Example 12b.3, 1-(3-(4-(difluoromethyl)-6-((R)-3-methoxytetrahydrofuran-3-yl)pyridin-2-yl)-1-((S)-tetrahydrofuran-3-yl)-1H-pyrrolo[2,3-c]pyridin-5-yl)urea]	1214-fold
CO[C@@]1(c2cc(C(F)F)cc(-c3cn(C4COC4)c4cnc(NC(N)=O)cc34)n2)CCOC1 [Example 12b.4, (R)-1-(3-(4-(difluoromethyl)-6-(3-methoxytetrahydrofuran-3-yl)pyridin-2-yl)-1-(oxetan-3-yl)-1H-pyrrolo[2,3-c]pyridin-5-yl)urea]	889-fold
Cn1cc(-c2cccc(C3(O)COC3)n2)c2cc(NC(N)=O)ncc21 [Example 14, 1-(3-(6-(3-hydroxyoxetan-3-yl)pyridin-2-yl)-1-methyl-1H-pyrrolo[2,3-c]pyridin-5-yl)urea]	20-fold
NC(=O)Nc1cc2c(-c3cccc(C4(O)COC4)n3)cn([C@@H]3CCOC3)c2cn1 [Example 15, (R)-1-(3-(6-(3-Hydroxyoxetan-3-yl)pyridin-2-yl)-1-(tetrahydrofuran-3-yl)-1H-pyrrolo[2,3-c]pyridin-5-yl)urea]	80-fold
CO[C@@]1(c2cc(C)cc(-c3cn([C@H]4C[C@H](C#N)C4)c4cnc(NC(C)=O)cc34)n2)CCOC1 [Example 17.4, N-(1-((trans)-3-cyanocyclobutyl)-3-(6-((R)-3-methoxytetrahydrofuran-3-yl)-4-methylpyridin-2-yl)-1H-pyrrolo[2,3-c]pyridin-5-yl)acetamide]	157-fold
CO[C@@]1(c2cc(C)cc(-c3cn([C@H]4C[C@@H](C#N)C4)c4cnc(NC(C)=O)cc34)n2)CCOC1 [Example 17.5, N-(1-((cis)-3-cyanocyclobutyl)-3-(6-((R)-3-methoxytetrahydrofuran-3-yl)-4-methylpyridin-2-yl)-1H-pyrrolo[2,3-c]pyridin-5-yl)acetamide]	6400-fold
COc1cc(-c2cn(C)c3cnc(NC(C)=O)cc23)nc([C@]2(OC)CCOC2)c1 [Example 20, (R)-N-(3-(4-Methoxy-6-(3-methoxytetrahydrofuran-3-yl)pyridin-2-yl)-1-methyl-1H-pyrrolo[2,3-c]pyridin-5-yl)acetamide]	328-fold
